Where two headings read alike, the source gives them in different places.
Columns and labels:
[1] = system: MDA-MB468; assay: SRB antiproliferative assay, MDA-MB468; type: cell-based, human; conditions: Homo sapiens, MDA-MB-468, 48 h
Protocol: (§1) Antiproliferative effects were determined by a sulforhodamine B (SRB) based protocol. For a typical screening experiment, 5,000-10,000 cells were inoculated into 100 μl medium per well of a 96-well microtiter plate as described previously. […] Some of the sample wells were fixed with 25 μl of 50% trichloroacetic acid (TCA) as a control of the cell population for each cell line at the time of drug addition (Tz). An aliquot of the frozen stock was thawed and diluted to the desired final maximum test-concentration with complete medium. Two to ten-fold serial dilutions were made to provide a total of seven drug concentrations (and a control [C]). Following addition of drugs, the culture plate was incubated for additional 48 h. Cells were fixed in situ by slowly adding 25 μl of ice-cold 50% (w/v) TCA (final concentration, 10% TCA), and were then incubated for 60 min at 4° C. The supernatant was discarded, and the plate was washed five times with tap water, followed by air-dry. 50 μl of SRB solution at 0.4% (w/v) in 1% acetic acid was added to each well, and the plate was incubated for >30 min at room temperature. Unbound SRB was removed by five washes with tap water, followed by air-drying. […] The relative growth rate (%) was calculated for each of the compound concentrations according to the following formula: (Ti−Tz)/(C−Tz)×100 In the formula, time zero (Tz), control growth (C), and OD for different concentration of tested compounds (Ti). The GI50 for each compound was obtained from a non-linear Sigmoidal dose-response (variable slope) curve which is fitted by GraphPad Prism™ v.4.03 software. Values were calculated for each of these parameters if the level of activity was reached. However, if the effect was not reached or was exceeded, the value for that parameter was expressed as greater or less than the maximum or minimum concentration tested. Flow Cytometry

[2] = system: MCF7; assay: SRB antiproliferative assay, MCF7; type: cell-based, human; conditions: Homo sapiens, MCF7; SRB, 48 h; read-out: GI50 MCF7
Protocol: as §1

[3] = system: MDA-MB231; assay: SRB antiproliferative assay, MDA-MB231; type: cell-based, human; conditions: Homo sapiens, MDA-MB-231, 48 h
Protocol: as §1

[4] = system: 184B5; assay: SRB antiproliferative assay, 184B5 non-cancer breast cells; type: cell-based, human; conditions: Homo sapiens, read-out: GI50 184B5
Protocol: as §1

Row | SMILES | GI50 [1] [µM] | melting point [°C] | GI50 [2] [µM] | GI50 [3] [µM] | GI50 ([4]; 184B5, SRB, 48 h) [µM] | GI50 ([4]; 184B5, 48 h) [µM]
1 | COC(=O)c1sccc1S(=O)(=O)N1CCN(c2ccnc3cc(Cl)ccc23)CC1 [Compound 2, Methyl 3-(4-(7-chloroquinolin-4-yl)piperazin-1-ylsulfonyl)thiophene-2-carboxylate] | 30.2 ± 0.71 | 117 to 119 | 22.37 ± 0.21 | 40.4 ± 0.82 | 15.2 ± 0.18 | –
2 | CN(C)c1cccc2c(S(=O)(=O)N3CCN(c4ccnc5cc(Cl)ccc45)CC3)cccc12 [Compound 4, 5-(4-(7-Chloroquinolin-4-yl)piperazin-1-ylsulfonyl)-N,N-dimethylnaphthalen-1-amine] | 27.5 ± 0.66 | 145 to 147 | – | 35 ± 0.76 | 28.25 ± 0.26 | –
3 | O=S(=O)(c1ccc(Cl)cc1Cl)N1CCN(c2ccnc3cc(Cl)ccc23)CC1 [Compound 5, 7-Chloro-4-(4-(2,4-dichlorophenylsulfonyl)piperazin-1-yl)quinoline] | 21.6 ± 0.61 | 145 to 147 | 13.5 ± 0.23 | 40.6 ± 0.81 | 12.4 ± 0.15 | –
4 | O=S(=O)(c1ccc(Cl)cc1)N1CCN(c2ccnc3cc(C(F)(F)F)ccc23)CC1 [Compound 7, 4-[4-(4-Chloro-benzenesulfonyl)-piperazin-1-yl]-7-trifluoromethyl-quinoline] | 34.9 ± 0.78 | 144 to 146 | 27.36 ± 0.27 | 41.4 ± 0.83 | – | –
5 | Cc1ccc(S(=O)(=O)N2CCN(c3ccnc4cc(C(F)(F)F)ccc34)CC2)cc1 [Compound 8, 4-[4-(Toluene-4-sulfonyl)-piperazin-1-yl]-7-trifluoromethyl-quinoline] | 36.5 ± 0.75 | 126 to 128 | 20.8 ± 0.23 | 42.7 ± 0.83 | 13 ± 0.14 | –
6 | O=S(=O)(c1ccc(-c2ccccc2)cc1)N1CCN(c2ccnc3cc(C(F)(F)F)ccc23)CC1 [Compound 9, 4-[4-(Biphenyl-4-sulfonyl)-piperazin-1-yl]-7-trifluoromethyl-quinoline] | 20.5 ± 0.54 | 148 to 150 | 14.8 ± 0.19 | 27.2 ± 0.61 | 19.1 ± 0.24 | –
7 | CS(=O)(=O)N1CCN(c2ccnc3cc(C(F)(F)F)ccc23)CC1 [Compound 11, 4-(4-Methanesulfonyl-piperazin-1-yl)-7-trifluoromethyl-quinoline] | 28.6 ± 0.69 | 116 to 118 | 25.6 ± 0.26 | 44.4 ± 0.85 | 93.93 ± 0.89 | –
8 | O=[N+]([O-])c1ccc(S(=O)(=O)N2CCN(c3ccnc4cc(C(F)(F)F)ccc34)CC2)c([N+](=O)[O-])c1 [Compound 12, 4-[4-(2,4-Dinitro-benzenesulfonyl)-piperazin-1-yl]-7-trifluoromethyl-quinoline] | 19.2 ± 0.61 | 178 to 180 | 10.8 ± 0.12 | 24.3 ± 0.63 | – | 37.78 ± 0.35
9 | COC(=O)c1sccc1S(=O)(=O)N1CCN(c2ccnc3cc(C(F)(F)F)ccc23)CC1 [Compound 14, 3-[4-(7-Trifluoromethyl-quinolin-4-yl)-piperazine-1-sulfonyl]-thiophene-2-carboxylic acid methyl ester] | 23.9 ± 0.64 | 117 to 119 | 16 ± 0.24 | 34.7 ± 0.71 | 15.88 ± 0.14 | –
10 | CS(=O)(=O)NCCCNc1ccnc2cc(Cl)ccc12 [Compound 15, N-[3-(7-Chloro-quinolin-4-ylamino)-propyl]-methanesulfonamide] | 28.6 ± 1.03 | – | 23.1 ± 0.87 | 40.9 ± 1.52 | 23.3 ± 0.92 | –
11 | O=[N+]([O-])c1ccc(S(=O)(=O)NCCCNc2ccnc3cc(Cl)ccc23)c([N+](=O)[O-])c1 [Compound 17, N-[3-(7-Chloro-quinolin-4-ylamino)-propyl]-2,4-dinitro-benzenesulfonamide] | 7.35 ± 0.23 | 238 to 240 | 6.16 ± 0.32 | 8.85 ± 0.71 | – | 9.09 ± 0.56
12 | CS(=O)(=O)NCCCNc1ccnc2cc(C(F)(F)F)ccc12 [Compound 23, N-[3-(7-Trifluoromethyl-quinolin-4-ylamino)-propyl]-methanesulfonamide] | 30.4 ± 0.99 | 171 to 173 | 25.3 ± 1.23 | 55.9 ± 1.56 | 59.5 ± 1.56 | –
13 | O=[N+]([O-])c1ccc(S(=O)(=O)NCCCNc2ccnc3cc(C(F)(F)F)ccc23)c([N+](=O)[O-])c1 [Compound 25, 2,4-Dinitro-N-[3-(7-trifluoromethyl-quinolin-4-ylamino)-propyl]-benzenesulfonamide] | 8.46 ± 0.41 | 198 to 200 | 5.56 ± 0.34 | 8.91 ± 0.77 | – | 15.9 ± 0.89

Continued by falling GI50 [1], values first:

Row | GI50 [1] [µM] | melting point [°C] | GI50 [2] [µM] | GI50 [3] [µM] | SMILES | GI50 ([4]; 184B5, SRB, 48 h) [µM] | GI50 ([4]; 184B5, 48 h) [µM]
14 | 19 ± 0.55 | 98 to 100 | 12.8 ± 0.21 | 22 ± 0.59 | CN(C)c1cccc2c(S(=O)(=O)N3CCN(c4ccnc5cc(C(F)(F)F)ccc45)CC3)cccc12 [Compound 13, Dimethyl-{5-[4-(7-trifluoromethyl-quinolin-4-yl)-piperazine-1-sulfonyl]-naphthalen-1-yl}-amine] | 12 ± 0.15 | –
15 | 18.6 ± 0.55 | 137 to 139 | 16.7 ± 0.19 | 20.3 ± 0.53 | O=S(=O)(c1ccc(Cl)cc1Cl)N1CCN(c2ccnc3cc(C(F)(F)F)ccc23)CC1 [Compound 10, 4-[4-(2,4-Dichloro-benzenesulfonyl)-piperazin-1-yl]-7-trifluoromethyl-quinoline] | 20.4 ± 0.23 | –
16 | 18.6 ± 0.57 | 199 to 201 | 9.44 ± 0.25 | 32.2 ± 0.68 | O=[N+]([O-])c1cccc(S(=O)(=O)N2CCN(c3ccnc4cc(C(F)(F)F)ccc34)CC2)c1 [Compound 6, 4-[4-(3-Nitro-benzenesulfonyl)-piperazin-1-yl]-7-trifluoromethyl-quinoline] | 17.7 ± 0.21 | –
17 | 18.2 ± 0.54 | 238 to 240 | 9.23 ± 0.21 | 26.2 ± 0.62 | O=S(=O)(c1ccc(-c2ccccc2)cc1)N1CCN(c2ccnc3cc(Cl)ccc23)CC1 [Compound 3, 7-Chloro-4-(4-(biphenylsulfonyl)piperazin-1-yl)quinoline] | 16.4 ± 0.23 | –
18 | 10.3 ± 0.56 | 70 to 72 | 5.44 ± 0.34 | 12.8 ± 0.88 | O=S(=O)(NCCCNc1ccnc2cc(C(F)(F)F)ccc12)c1ccc(Cl)cc1 [Compound 27, 4-Chloro-N-[3-(7-trifluoromethyl-quinolin-4-ylamino)-propyl]-benzenesulfonamide] | 7.63 ± 0.43 | –
19 | 9.21 ± 0.65 | – | 8.62 ± 0.38 | 20.4 ± 1.15 | O=[N+]([O-])c1cccc(S(=O)(=O)NCCCNc2ccnc3cc(Cl)ccc23)c1 [Compound 18, N-(3-(7-Chloroquinolin-4-ylamino)propyl)-3-nitrobenzenesulfonamide] | 15.8 ± 0.88 | –
20 | 9.09 ± 0.57 | 98 to 100 | 8.25 ± 0.52 | 15.8 ± 0.95 | O=[N+]([O-])c1cccc(S(=O)(=O)NCCCNc2ccnc3cc(C(F)(F)F)ccc23)c1 [Compound 26, 3-Nitro-N-[3-(7-trifluoromethyl-quinolin-4-ylamino)-propyl]-benzenesulfonamide] | 8.01 ± 0.76 | –
21 | 8.34 ± 0.73 | – | 4.31 ± 0.32 | 11.8 ± 0.91 | O=S(=O)(NCCCNc1ccnc2cc(Cl)ccc12)c1ccc(Cl)cc1 [Compound 19, 4-Chloro-N-(3-(7-chloroquinolin-4-ylamino)propyl)benzenesulfonamide] | 6.36 ± 0.34 | –
22 | 6.21 ± 0.42 | 77 to 79 | 6.9 ± 0.45 | 6.36 ± 0.48 | Cc1ccc(S(=O)(=O)NCCCNc2ccnc3cc(C(F)(F)F)ccc23)cc1 [Compound 24, 4-Methyl-N-[3-(7-trifluoromethyl-quinolin-4-ylamino)-propyl]-benzenesulfonamide] | 12.2 ± 0.86 | –
23 | 5.77 ± 0.41 | – | 5.25 ± 0.45 | 6.16 ± 0.51 | Cc1ccc(S(=O)(=O)NCCCNc2ccnc3cc(Cl)ccc23)cc1 [Compound 16, N-[3-(7-Chloro-quinolin-4-ylamino)-propyl]-4-methyl-benzenesulfonamide] | 9.56 ± 0.53 | –
24 | 4.46 ± 0.37 | 116 to 118 | 2.47 ± 0.23 | 4.63 ± 0.42 | O=S(=O)(NCCCNc1ccnc2cc(Cl)ccc12)c1ccc(-c2ccccc2)cc1 [Compound 20, Biphenyl-4-sulfonic acid [3-(7-chloro-quinolin-4-ylamino)-propyl]-amide] | 2.41 ± 0.09 | –
25 | 3.61 ± 0.12 | 145 to 147 | 4.04 ± 0.22 | 6.76 ± 0.55 | O=S(=O)(NCCCNc1ccnc2cc(Cl)ccc12)c1ccc(Cl)cc1Cl [Compound 21, 2,4-Dichloro-N-[3-(7-chloro-quinolin-4-ylamino)-propyl]-benzenesulfonamide] | 3.55 ± 0.21 | –

From patent publication US9975852B2, “Quinoline sulfonyl derivatives and uses thereof” (Health Sciences North Research Institute, priority 2013, dated 2018)
